Measured values from patent US9913843B2, “Protein kinase C inhibitors and uses thereof” (Rigel Pharmaceuticals, Inc., priority 2012, dated 2018).
Where two headings read alike, the source gives them in different places.

Test system: PKC mediated IL-2 production in human primary T cells
Experiment: IL-2 ELISA, human primary T cell, anti CD3+CD28+ (whole cell functional assay for PKC mediated IL-2 production)
Assay type: cell-based
Method in brief: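 Primary human T cells (PBMC-derived, expanded on plate-bound anti-CD3/CD28 with IL-2, then IL-2-washed) were pre-incubated 1 h at 37 °C with compound, then stimulated on 1 μg/ml anti-CD3 plus 5 μg/ml anti-CD28. After 24 h at 37 °C, secreted IL-2 was measured by ELISA; counter assay used 0.5 ng/ml PMA plus 0.1 μM ionomycin (final).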

[1] = 24 h, human primary T cells stimulated with anti-CD3 + anti-CD28, IL-2 by ELISA, read-out: IC50 for blocking IL-2 production
[2] = human primary T cells stimulated with anti-CD3 + anti-CD28, 24 h, IL-2 by ELISA, 8 pt, read-out: IL2 ELISA, Human primary T cell, anti-CD3 + CD28, 8 pt (IC50)

## Cc1ccc(Nc2ncc(C(F)(F)F)c(NC[C@@H]3CCCN4CCCC[C@H]34)n2)cc1C#N [Compound 108, 5-(4-(((1S,9aR)-octahydro-1H-quinolizin-1-yl)methylamino)-5-(trifluoromethyl)pyrimidin-2-ylamino)-2-methylbenzonitrile]
[1]
  IC50: < 30000 nM

## Fc1cc(C2CC2)c(-n2cnnn2)cc1Nc1ncc(Cl)c(NC[C@@H]2CCCN3CCCC[C@H]23)n1 [Compound 32, 5-chloro-N2-(4-cyclopropyl-2-fluoro-5-(1H-tetrazol-1-yl)phenyl)-N4-(((1S,9aR)-octahydro-1H-quinolizin-1-yl)methyl)pyrimidine-2,4-diamine]
[1]
  IC50: < 30000 nM
[2]
  IC50: 159 nM

## Cc1nnnn1-c1ccc(F)c(Nc2ncc(Cl)c(NC[C@@H]3CCCN4CCCC[C@H]34)n2)c1 [Compound 36, 5-chloro-N2-(2-fluoro-5-(5-methyl-1H-tetrazol-1-yl)phenyl)-N4-(((1S,9aR)-octahydro-1H-quinolizin-1-yl)methyl)pyrimidine-2,4-diamine]
[1]
  IC50: < 30000 nM
[2]
  IC50: 112 nM

## C[C@H](O)COc1cc(F)c(Nc2ncc(Cl)c(NC[C@@H]3CCCN4CCCC[C@H]34)n2)cc1-n1nnn(C)c1=O [Compound 152, 1-(5-((5-chloro-4-((((1S,9aR)-octahydro-2H-quinolizin-1-yl)methyl)amino)pyrimidin-2-yl)amino)-4-fluoro-2-((S)-2-hydroxypropoxy)phenyl)-4-methyl-1,4-dihydro-5H-tetrazol-5-one]
[1]
  IC50: < 30000 nM
[2]
  IC50: 89.8 nM

## Fc1ccc(-n2nnnc2C2CC2)cc1Nc1ncc(F)c(NC[C@@H]2CCCN3CCCC[C@H]23)n1 [Compound 45, N2-(5-(5-cyclopropyl-1H-tetrazol-1-yl)-2-fluorophenyl)-5-fluoro-N4-(((1S,9aR)-octahydro-1H-quinolizin-1-yl)methyl)pyrimidine-2,4-diamine]
[1]
  IC50: < 30000 nM
[2]
  IC50: 224 nM

## COc1ccc(Nc2ncc(C(F)(F)F)c(NC[C@@H]3CCCN4CCCC[C@H]34)n2)cc1-n1nnnc1C [Compound 105, 5-(trifluoromethyl)-N4-(((1S,9aR)-octahydro-1H-quinolizin-1-yl)methyl)-N2-(4-methoxy-3-(5-methyl-1H-tetrazol-1-yl)phenyl)pyrimidine-2,4-diamine]
[1]
  IC50: < 30000 nM
[2]
  IC50: 11800 nM

## N#Cc1cc(Nc2ncc(C(F)(F)F)c(NC[C@@H]3CCCN4CCCC[C@H]34)n2)ccc1C1CC1 [Compound 109, 5-(4-(((1S,9aR)-octahydro-1H-quinolizin-1-yl)methylamino)-5-(trifluoromethyl)pyrimidin-2-ylamino)-2-cyclopropylbenzonitrile]
[1]
  IC50: < 30000 nM
[2]
  IC50: 6580 nM

## N#Cc1cc(Nc2nccc(NC[C@@H]3CCCN4CCCC[C@H]34)n2)ccc1C1CC1 [Compound 55, 5-(4-(((1S,9aR)-octahydro-1H-quinolizin-1-yl)methylamino)pyrimidin-2-ylamino)-2-cyclopropylbenzonitrile]
[1]
  IC50: < 30000 nM
[2]
  IC50: 607 nM

## Cn1nnn(-c2cc(Nc3ncc(F)c(NC[C@@H]4CCCN5CCCC[C@H]45)n3)c(F)cc2O)c1=O [Compound 147, 1-(5-((5-fluoro-4-((((1S,9aR)-octahydro-2H-quinolizin-1-yl)methyl)amino)pyrimidin-2-yl)amino)-4-fluoro-2-hydroxyphenyl)-4-methyl-1,4-dihydro-5H-tetrazol-5-one]
[1]
  IC50: < 30000 nM
[2]
  IC50: 5060 nM

## Fc1ccc(S(F)(F)(F)(F)F)cc1Nc1ncc(F)c(NC[C@@H]2CCCN3CCCC[C@H]23)n1 [Compound 29, 5-fluoro-N2-(3-pentafluorosulfanyl-6-fluoro-phenyl)-N4-(((1S,9aR)-octahydro-1H-quinolizin-1-yl)methyl)pyrimidine-2,4-diamine]
[1]
  IC50: < 30000 nM
[2]
  IC50: 1800 nM

## O=c1[nH]c2cc(Nc3nccc(NC[C@@H]4CCCN5CCCC[C@H]45)n3)ccc2o1 [Compound 58, 5-(4-(((1S,9aR)-octahydro-1H-quinolizin-1-yl)methylamino)pyrimidin-2-ylamino)benzo[d]oxazol-2(3H)-one]
[1]
  IC50: < 30000 nM
[2]
  IC50: 18600 nM

## COc1cc(Nc2ncc(Cl)c(NC[C@@H]3CCCN4CCCC[C@H]34)n2)cc(-n2nnnc2C)c1 [Compound 38, 5-chloro-N4-(((1S,9aR)-octahydro-1H-quinolizin-1-yl)methyl)-N2-(3-methoxy-5-(5-methyl-1H-tetrazol-1-yl)phenyl)pyrimidine-2,4-diamine]
[1]
  IC50: < 30000 nM
[2]
  IC50: 126 nM

## N#Cc1cc(Nc2ncc(Cl)c(NC[C@@H]3CCCN4CCCC[C@H]34)n2)ccc1C1CC1 [Compound 41, 5-(4-(((1S,9aR)-octahydro-1H-quinolizin-1-yl)methylamino)-5-chloropyrimidin-2-ylamino)-2-cyclopropylbenzonitrile]
[1]
  IC50: < 30000 nM
[2]
  IC50: 72.3 nM

## Cc1ccc(Nc2ncc(Cl)c(NC[C@@H]3CCCN4CCCC[C@H]34)n2)cc1-n1cnnn1 [Compound 33, 5-chloro-N4-(((1S,9aR)-octahydro-1H-quinolizin-1-yl)methyl)-N2-(4-methyl-3-(1H-tetrazol-1-yl)phenyl)pyrimidine-2,4-diamine]
[1]
  IC50: < 30000 nM
[2]
  IC50: 117 nM

## Cc1cnc(Nc2cc(-n3nnnc3C)ccc2F)nc1NC[C@@H]1CCCN2CCCC[C@H]12 [Compound 63, N2-(2-fluoro-5-(5-methyl-1H-tetrazol-1-yl)phenyl)-N4-(((1S,9aR)-octahydro-1H-quinolizin-1-yl)methyl)-5-methylpyrimidine-2,4-diamine]
[1]
  IC50: < 30000 nM
[2]
  IC50: 1160 nM

## Cn1nnn(-c2cc(Nc3ncc(C#N)c(NC[C@@H]4CCCN5CCCC[C@H]45)n3)c(F)cc2OCC(C)(C)O)c1=O [Compound 156, 2-((2-fluoro-4-(2-hydroxy-2-methylpropoxy)-5-(4-methyl-5-oxo-4,5-dihydro-1H-tetrazol-1-yl)phenyl)amino)-4-((((1S,9aR)-octahydro-2H-quinolizin-1-yl)methyl)amino)pyrimidine-5-carbonitrile]
[1]
  IC50: < 30000 nM
[2]
  IC50: 27.6 nM

## COc1cc(F)cc(Nc2ncc(F)c(NC[C@@H]3CCCN4CCCC[C@H]34)n2)c1 [Compound 21, 5-fluoro-N2-(3-fluoro-5-methoxyphenyl)-N4-(((1S,9aR)-octahydro-1H-quinolizin-1-yl)methyl)pyrimidine-2,4-diamine]
[1]
  IC50: < 30000 nM
[2]
  IC50: 702 nM

## Cc1cnc(Nc2cc(-n3nnn(C)c3=O)c(C3CC3)cc2F)nc1NC[C@@H]1CCCN2CCCC[C@H]12 [Compound 61, 1-(5-(4-(((1S,9aR)-octahydro-1H-quinolizin-1-yl)methylamino)-5-methylpyrimidin-2-ylamino)-2-cyclopropyl-4-fluorophenyl)-4-methyl-1H-tetrazol-5(4H)-one]
[1]
  IC50: < 30000 nM
[2]
  IC50: 1980 nM

## OCCOc1ccc(Nc2nccc(NC[C@@H]3CCCN4CCCC[C@H]34)n2)cc1-n1cnnn1 [Compound 141, 2-(4-((4-((((1S,9aR)-octahydro-2H-quinolizin-1-yl)methyl)amino)pyrimidin-2-yl)amino)-2-(1H-tetrazol-1-yl)phenoxy)ethan-1-ol]
[1]
  IC50: < 30000 nM
[2]
  IC50: 3550 nM

## C[C@H](O)COc1cc(F)c(Nc2ncc(C#N)c(NC[C@@H]3CCCN4CCCC[C@H]34)n2)cc1-n1nnn(C)c1=O [Compound 142, 2-((2-fluoro-4-((S)-2-hydroxypropoxy)-5-(4-methyl-5-oxo-4,5-dihydro-1H-tetrazol-1-yl)phenyl)amino)-4-((((1 S,9aR)-octahydro-2H-quinolizin-1-yl)methyl)amino)pyrimidine-5-carbonitrile]
[1]
  IC50: < 30000 nM
[2]
  IC50: 66.2 nM

## Cn1nnn(-c2cc(Nc3ncc(C(F)(F)F)c(NC[C@@H]4CCCN5CCCC[C@H]45)n3)c(F)cc2C2CC2)c1=O [Compound 102, 1-(5-(4-(((1S,9aR)-octahydro-1H-quinolizin-1-yl)methylamino)-5-(trifluoromethyl)pyrimidin-2-ylamino)-2-cyclopropyl-4-fluorophenyl)-4-methyl-1H-tetrazol-5(4H)-one]
[1]
  IC50: < 30000 nM
[2]
  IC50: 12600 nM

## N#Cc1cc(Nc2ncc(F)c(NC[C@@H]3CCCN4CCCC[C@H]34)n2)c(F)cc1C1CC1 [Compound 12, 5-(4-(((1S,9aR)-octahydro-1H-quinolizin-1-yl)methylamino)-5-fluoropyrimidin-2-ylamino)-2-cyclopropyl-4-fluorobenzonitrile]
[1]
  IC50: < 30000 nM
[2]
  IC50: 889 nM

## COc1cc(Nc2ncc(F)c(NC[C@@H]3CCCN4CCCC[C@H]34)n2)cc(-n2nnn(C)c2=O)c1 [Compound 17, 1-(3-(4-(((1S,9aR)-octahydro-1H-quinolizin-1-yl)methylamino)-5-fluoropyrimidin-2-ylamino)-5-methoxyphenyl)-4-methyl-1H-tetrazol-5(4H)-one]
[1]
  IC50: < 30000 nM
[2]
  IC50: 405 nM

## Cn1nnn(-c2cc(Nc3ncc(F)c(NC[C@@H]4CCCN5CCCC[C@H]45)n3)c(F)cc2C2CC2)c1=O [Compound 3, 1-(5-(4-(((1S,9aR)-octahydro-1H-quinolizin-1-yl)methylamino)-5-fluoropyrimidin-2-ylamino)-2-cyclopropyl-4-fluorophenyl)-4-methyl-1H-tetrazol-5(4H)-one]
[1]
  IC50: < 30000 nM
[2]
  IC50: 1680 nM

## Cc1cnc(Nc2ccc(F)c(-n3nnnc3C)c2)nc1NC[C@@H]1CCCN2CCCC[C@H]12 [Compound 62, N2-(4-fluoro-3-(5-methyl-1H-tetrazol-1-yl)phenyl)-N4-(((1S,9aR)-octahydro-1H-quinolizin-1-yl)methyl)-5-methylpyrimidine-2,4-diamine]
[1]
  IC50: < 30000 nM
[2]
  IC50: 1870 nM

## COc1ccc(Nc2nccc(NC[C@@H]3CCCN4CCCC[C@H]34)n2)cc1-n1nnnc1C [Compound 51, N4-(((1S,9aR)-octahydro-1H-quinolizin-1-yl)methyl)-N2-(4-methoxy-3-(5-methyl-1H-tetrazol-1-yl)phenyl)pyrimidine-2,4-diamine]
[1]
  IC50: < 30000 nM
[2]
  IC50: 532 nM
